{"source": "patent US20120270770A1", "about": "“Anti-angiogenic peptides and their uses” (priority 2010, published 2012)", "key": {"[1]": {"test_system": "angiogenesis in Matrigel deposits imbibed with fibroblast growth factor 1 (FGF1)", "test": "Matrigel deposit angiogenesis assay (FGF1-loaded Matrigel implanted in mice, histology score)", "type": "in vivo", "source_text": "Matrigel deposits were surgically implanted on both sides of 4 mice per treatment yielding a possible 8 samples per treatment. Matrigel is a polymeric substance that appears to be relatively inert in animals and it can serve as a matrix that allows experimentation in vivo on many different difficult-to-study-processes. Prior to implantation, the Matrigel was allowed to imbibe fibroblast growth factor 1 (FGF1). This protein is a powerful inducer of angiogenesis and its presence guarantees that sufficient activity will be observed within the allotted time period of the experiment. Therefore, any inhibition of angiogenesis is likely to be a real phenomenon as the experiment has been set to heavily favor the angiogenic process. Angiogenesis occurs by day 14 and beginning Day 1 (Day 0=day of implantation), mice were injected IP daily with 20 μg of peptide in 100 μl of normal saline. The animals were sacrificed on Day 14, and each Matrigel deposit divided longitudinally and fixed in 10% buffered formalin. One of the halves of each Matrigel deposit was then sectioned. Read-out for this experiment was via histology, with semi-quantitative/qualitative counting of migration of cells and their subsequent assembly of lumenal structures within the Matrigel. This method allows us to observe the full physiologic spectrum of effects, and was useful in delineating trends. […] In FIG. 13, A represents what a section of a Matrigel gel deposit looks like under the microscope soon after surgical implantation. The sample in B is derived from the control at the conclusion of the experiment. Intense activity is present with numerous cells attaching to the surface of the Matrigel. Cells begin to penetrate the deposit and organize into discrete structures that coalesce to form the beginning of tubes twisting and branching in many directions. These venules eventually connect with the system carrying blood and it is possible to see red cells and lymphocytes within them. This process is called “arborization”, derived from the fact that the angiogenic process most closely resembles the growth of roots and branches of trees. All but two of the peptide treatments looked, more or less, like B (all the peptides of Table 1 were tested). In C, a typical sample from the peptide C-1 treatment is shown. […] Consequently, there were far fewer cells and cellular structures inside of the Matrigel. […] There were large regions of Matrigel that had no visibly associated structures and few single cells, including on the periphery, while other regions had some limited activity.\nThis system ranks each sample using a 0 to 4 plus (+) scale. Thus, B in FIG. 13 would yield a score of +++ while no + sign would yield a value of 0, as in A in FIG. 13. In Table 3 the data is modified to a numerical form and plotted averages are shown."}, "HMEC-1 monolayer": {"test_system": "HMEC-1 monolayer", "test": "Endothelial cell migration assay (scraped HMEC-1 monolayer)", "type": "cell-based", "conditions": "for Endothelial Cell Migration: NT = 1.00", "procedure": "The results in Table 6 are gathered from an in vitro experiment and show the ability of JC 15 10N to inhibit the migration of endothelial cells (the “minus” values). This migration is a requisite step in the formation of new blood vessels. […] The shading indicates the presence of VEGF ([…] endothelial growth factor). This growth factor causes endothelial cell migration and consequent assembly of blood vessels.\nCell migration was performed as previously described. In brief, a HMEC-1 monolayer was scraped making a 1-mm wide denuded area then stimulated with VEGF and 10N and the area unoccupied by the migrating cells was determined using MetaMorph and expressed as a percentage of control."}, "[2]": {"test_system": "Feline Immunodeficiency virus FIV", "test": "Treatment of a lion infected with FIV", "type": "in vivo", "conditions": "weekly 70 mg I.M injections", "source_text": "Nasty is a male lion in North Carolina Zoological Park. He was diagnosed to suffer Feline Immunodeficiency virus FIV. FIV attacks the immune system of cats, much like the human immunodeficiency virus (HIV) attacks the immune system of human beings. FIV infects many cell types in its host, including CD4+ and CD8+ T lymphocytes, B lymphocytes, and macrophages. FIV eventually leads to debilitation of the immune system in its feline hosts by the infection and exhaustion of T-helper (CD4+) cells.\nNasty was treated weekly with 70 mg I.M injections of JC15-10N. […] It can be seen that starting of peptide treatment stabilized the CD4+ cell counts."}, "[3]": {"test_system": "Stage IV pancreatic cancer", "test": "Treatment of a patient with Stage IV pancreatic cancer", "type": "in vivo, human", "conditions": "one patient", "procedure": "A diabetic since 12/01 was diagnosed with Stage IV pancreatic cancer in May 2002 with metastatic diseases in their liver. Median survival time of patients with Stage IV pancreatic cancer is 4.5 months. Median survival time of patients with Stage IV pancreatic cancer when treated with gemcitabine is 4.8 months. The longest anyone lived on gemcitabine treatment has been 19 months.\nThe patient of this case started JC15-10N peptide treatment on August 2002. The patient was given 0.5 mg/kg peptide sub-cutaneously. The patient weighted 128 lbs. and therefore they received 29 mg/injection per week. […] After receiving the peptide for more than 19 months, the patient was doing fine. The patient passed away from unrelated causes on July 2004."}, "[4]": {"conditions": "0 to 4 plus scale, 20 μg peptide IP daily, Day 14 histology"}}, "data": [{"sequence": "FAKKFAKKFK [JC15-10N]", "values": [{"measurement": "angiogenic activity score, Sample 1", "setting": "[1]; [4]", "result": 1}, {"measurement": "angiogenic activity score, Sample 2", "setting": "[1]; [4]", "result": 2}, {"measurement": "angiogenic activity score, Sample 3", "setting": "[1]; [4]", "result": 2}, {"measurement": "angiogenic activity score, Sample 4", "setting": "[1]; [4]", "result": 3}, {"measurement": "angiogenic activity score, Sample 5", "setting": "[1]; [4]", "result": 1}, {"measurement": "angiogenic activity score, Sample 6", "setting": "[1]; [4]", "result": 2}, {"measurement": "angiogenic activity score, Sample 7", "setting": "[1]; [4]", "result": 2}, {"measurement": "% Diff.", "setting": "[1]; difference of mean score from control (2.50)", "result": "−25.71", "unit": "%"}, {"measurement": "angiogenic / anti-angiogenic activity in Matrigel deposit (in words)", "setting": "[1]; histology, 20 μg peptide IP daily, Day 14", "result": "possesses anti-angiogenic activity"}, {"measurement": "angiogenic activity score, Mean", "setting": "[1]; mean of samples, control mean 2.50", "result": 1.86}, {"measurement": "Endothelial Cell Migration", "setting": "HMEC-1 monolayer; 10N 100 nM, first series (VEGF 150 ng/ml), VEGF presence marked by shading, not reproduced", "result": 0.42}, {"measurement": "Endothelial Cell Migration", "setting": "HMEC-1 monolayer; 10N 100 nM, second series (VEGF 75 ng/ml)", "result": "−1.18"}, {"measurement": "Endothelial Cell Migration", "setting": "HMEC-1 monolayer; 10N 100 nM, third series (VEGF 150 ng/ml)", "result": 0.55}, {"measurement": "Endothelial Cell Migration", "setting": "HMEC-1 monolayer; 10N 1 μM, first series (VEGF 150 ng/ml)", "result": "−1.57"}, {"measurement": "Endothelial Cell Migration", "setting": "HMEC-1 monolayer; 10N 1 μM, second series (VEGF 75 ng/ml)", "result": 0.57}, {"measurement": "Endothelial Cell Migration", "setting": "HMEC-1 monolayer; 10N 1 μM, third series (VEGF 150 ng/ml)", "result": "−1.35"}, {"measurement": "Endothelial Cell Migration", "setting": "HMEC-1 monolayer; 10N 10 μM, first series (VEGF 150 ng/ml)", "result": 0.90}, {"measurement": "Endothelial Cell Migration", "setting": "HMEC-1 monolayer; 10N 10 μM, second series (VEGF 75 ng/ml)", "result": "−1.02"}, {"measurement": "Endothelial Cell Migration", "setting": "HMEC-1 monolayer; 10N 10 μM, third series (VEGF 150 ng/ml)", "result": "−1.02"}, {"measurement": "Endothelial Cell Migration", "setting": "HMEC-1 monolayer; 10N 100 μM, first series (VEGF 150 ng/ml)", "result": 0.80}, {"measurement": "Endothelial Cell Migration", "setting": "HMEC-1 monolayer; 10N 100 μM, second series (VEGF 75 ng/ml)", "result": "−1.01"}, {"measurement": "Endothelial Cell Migration", "setting": "HMEC-1 monolayer; 10N 100 μM, third series (VEGF 150 ng/ml)", "result": "−1.06"}, {"measurement": "Endothelial Cell Migration", "setting": "HMEC-1 monolayer; 10N 1 mM, first series (VEGF 150 ng/ml)", "result": "−1.01"}, {"measurement": "Endothelial Cell Migration", "setting": "HMEC-1 monolayer; 10N 1 mM, second series (VEGF 75 ng/ml)", "result": 0.55}, {"measurement": "Endothelial Cell Migration", "setting": "HMEC-1 monolayer; 10N 1 mM, third series (VEGF 150 ng/ml)", "result": 0.92}, {"measurement": "effect on migration of endothelial cells (in words)", "setting": "HMEC-1 monolayer; in vitro, with VEGF", "result": "inhibits this migration even in the presence of VEGF"}, {"measurement": "absolute CD4+ cell counts", "setting": "[2]", "result": "stabilized"}, {"measurement": "absolute CD8+ cell counts", "setting": "[2]", "result": "prevented the decrease"}, {"measurement": "weight of the lion", "setting": "[2]", "result": "began to rise immediately"}, {"measurement": "need for diabetic medication (indicating primary tumor regressing)", "setting": "[3]; 0.5 mg/kg sub-cutaneously per week", "result": "required no more diabetic medication"}, {"measurement": "metastatic disease in the liver", "setting": "[3]; 0.5 mg/kg sub-cutaneously, 29 mg/injection per week", "result": "diminished significantly"}, {"measurement": "time on peptide with the patient doing fine", "setting": "[3]; Stage IV pancreatic cancer, 0.5 mg/kg sub-cutaneously per week", "result": "more than 19 months"}]}]}
